For the assay, the target named is T1, human serum albumin (HSA) (Homo sapiens, UniProt P02768).
T1 construct: gene ALB; full-length, fatty acid and globulin-free HSA purified from serum
In words: ITC ([…]°C, pH […]), two sets of independent sites; confirmed by 1H NMR chemical shift titration (Kd1 […]). It counts as binding.

Consider one compound from publication PMC5484023, “Multi-site binding of epigallocatechin gallate to human serum albumin measured by NMR and isothermal titration calorimetry” (Bioscience Reports, 2017).

Each structure is given as a SMILES string.

T1 sequence (P02768 25-609): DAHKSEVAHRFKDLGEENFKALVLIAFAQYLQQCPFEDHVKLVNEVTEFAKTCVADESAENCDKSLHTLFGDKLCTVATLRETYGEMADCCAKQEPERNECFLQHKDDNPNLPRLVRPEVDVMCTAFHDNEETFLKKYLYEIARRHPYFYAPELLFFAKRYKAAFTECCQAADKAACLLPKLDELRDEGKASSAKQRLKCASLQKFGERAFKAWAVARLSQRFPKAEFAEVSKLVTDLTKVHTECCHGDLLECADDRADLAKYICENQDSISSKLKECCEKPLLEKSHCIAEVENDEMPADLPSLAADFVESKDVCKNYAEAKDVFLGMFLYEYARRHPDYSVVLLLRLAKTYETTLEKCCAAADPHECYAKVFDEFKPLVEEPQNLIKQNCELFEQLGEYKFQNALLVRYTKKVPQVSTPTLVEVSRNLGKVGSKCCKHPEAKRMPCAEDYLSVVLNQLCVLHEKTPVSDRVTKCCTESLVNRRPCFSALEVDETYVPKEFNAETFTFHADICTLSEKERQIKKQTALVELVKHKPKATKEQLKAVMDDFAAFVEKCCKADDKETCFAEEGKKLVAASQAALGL

In the case of `O=C(O[C@@H]1Cc2c(O)cc(O)cc2O[C@@H]1c1cc(O)c(O)c(O)c1)c1cc(O)c(O)c(O)c1` [epigallocatechin gallate], the Kd (in general, the concentration at which binding is half-saturated) came to 22 ± 4 µM.
